Test results as given in publication PMC8537897, “Design, Synthesis and Biological Evaluation of Aromatase Inhibitors Based on Sulfonates and Sulfonamides of Resveratrol” (Pharmaceuticals, 2021).
Like-named read-outs stand apart in the source and are kept apart here.

Key:
MCF7 cells [1] = test: Cytotoxicity test (lactate dehydrogenase release); format: cell-based, human; settings: 24 h
Experimental: To assess whether the decrease in metabolic activity is a consequence of cytotoxic occurrence in the presence of compounds 1b, 1c, and 1j, lactate dehydrogenase (LDH) released from MCF7 was measured in response to loading concentrations of 0–250 µM after a 24 h exposure. […] It is, therefore, plausible to assume that all tested compounds exert their anti-proliferative effect on MCF7 cells through cytotoxic induction and 1c is the most promising compound, being active already at lower doses.
MCF7 cells were seeded and stimulated as previously described for the MTT test. After the exposure time, cell supernatants were collected, centrifuged at 450× g for 4 min, and stored on ice. In order to quantify the cytotoxicity of loading concentrations of compounds 1b, 1c, and 1j (0–250 µM), the CytoTox 96® Non-Radioactive Cytotoxicity Assay (Promega Corporation, Madison, WI, USA) was performed as previously reported. The results were normalized on MTT absorbances and expressed as fold increases on the LDH released by cultures in the presence of vehicle (DMSO) set as 1.

MCF7 cells [2] = test: Hematoxylin/eosin staining; format: cell-based, human; settings: MCF7, 50 µM, 72 h, vs DMSO
Experimental: The effectiveness on MCF7 cells of compound 1c over the other compounds is confirmed by the hematoxylin/eosin staining (H&E) performed after 72 h of treatment at 50 µM. […] At a higher magnification (panels C and D), MCF7 cells show chromatin condensation (green arrows), as a typical sign of the initiation of cell death.
MCF7 cells were seeded (7 × 10^4 cells/well) in well glasses (Millicell® EZ slide, Merck Millipore, Burlington, MA, USA). After 24 h from seeding, cells were exposed to compound 1c at 50 µM for 72 h. Next, supernatants were removed, and cells were washed twice with PBS with calcium and magnesium (Euro Clone, Milan, Italy). MCF7 cells were fixed in the presence of p-formaldehyde 4% and stained with hematoxylin/eosin as reported elsewhere.

human aromatase = target: T1, human aromatase (Homo sapiens, UniProt P11511); test: Aromatase inhibition, fluorimetric assay kit (Aromatase-CYP19A Inhibitor Screening kit, BioVision); format: biochemical
T1 construct: purchased BioVision, Milpitas, CA, USA
T1 sequence (P11511 1-503): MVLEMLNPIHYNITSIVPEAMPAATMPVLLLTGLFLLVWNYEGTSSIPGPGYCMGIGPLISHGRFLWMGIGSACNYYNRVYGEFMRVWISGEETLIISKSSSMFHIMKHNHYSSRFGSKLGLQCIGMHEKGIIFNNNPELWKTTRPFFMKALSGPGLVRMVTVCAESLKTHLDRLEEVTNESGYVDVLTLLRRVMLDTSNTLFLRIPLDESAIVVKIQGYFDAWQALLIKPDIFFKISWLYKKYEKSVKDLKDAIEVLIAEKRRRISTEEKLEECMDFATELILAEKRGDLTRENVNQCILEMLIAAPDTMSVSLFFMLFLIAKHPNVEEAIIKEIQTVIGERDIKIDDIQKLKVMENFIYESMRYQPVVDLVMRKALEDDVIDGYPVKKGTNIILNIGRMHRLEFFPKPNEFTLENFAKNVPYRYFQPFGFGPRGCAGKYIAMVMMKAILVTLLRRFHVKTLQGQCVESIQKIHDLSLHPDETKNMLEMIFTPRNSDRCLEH
Experimental: The activity was measured each minute for 60 min and the value obtained for each compound after 10 min was chosen to calculate the percentage of the aromatase inhibition.
The aromatase inhibitory activity was determined using a commercial fluorimetric assay kit (Aromatase-CYP19A Inhibitor Screening kit, BioVision, Milpitas, CA, USA), as reported elsewhere. The assay utilizes a fluorogenic aromatase substrate that is converted into a highly fluorescent metabolite detected in the visible range (Ex/Em 488/527 nm). […] During the incubation, the Aromatase Substrate/NADP+ mixture was prepared, and the reaction was started by adding 30 µL of this solution to each well (aside from the background control), reaching a final reaction volume of 100 µL/well. The fluorescence emission (527 nm) was measured immediately (within 1 min) by means of a fluorometer equipped with a 488 nm filter (GloMax®-Multi Detection System, Promega, Madison, WI, USA) and afterwards monitored for 60 min. […] The assay was performed in the same experimental conditions used for the initial screening of compounds. Dose–response curves were fitted with GraphPad Prism 5.0 (GraphPad Software, San Diego, CA, USA).

[3] = tested on: normal human skin fibroblast (HFF-1); test: Cell metabolic activity (MTT assay) on HFF-1; format: cell-based
Experimental: The compounds were then biologically characterized in terms of cytotoxicity occurrence (LDH released) on MCF7 cells. […] After 24 h of treatment, a dose-dependent decrease in cell metabolic activity can be registered for all the compounds with respect to DMSO alone. […] Similar results were obtained also after 72 h of treatment.
Human skin fibroblasts (HFF-1, CVCL_3285) and human breast cancer MCF7 (HTB-22™, CVCL_0031) were purchased from ATCC and maintained in Dulbecco’s modified Eagle’s medium (DMEM) high glucose (EuroClone, Milan, Italy) supplemented with 10% of fetal bovine serum (FBS) and 1% of penicillin/streptomycin (Gibco—Thermo Fisher Scientific, MD, USA).
Cell metabolic activity of HFF-1 and MCF7 cells was assessed by MTT (3-(4,5-Dimethylthiazol-2-yl)-2,5-Diphenyltetrazolium Bromide) test (Sigma Aldrich, Milan, Italy). […] After the established exposure times, cells were incubated with MTT (0.5 mg/mL) and the optical density was measured as reported elsewhere. Results were expressed as the percentage of cells in the presence of vehicle (DMSO) set as 100% and each experiment was performed in triplicate (n = 3). Concentration–response curves and IC50 were fitted and calculated with GraphPad Prism 5.0 (GraphPad Software, San Diego, CA, USA).

[4] = tested on: MCF7 breast cancer cell line; test: Cell metabolic activity / viability (MTT assay) on MCF7; format: cell-based, human; settings: for IC50: MTT, tested 0 to 500 µM;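 as to all read-outs here: MTT optical density read-out in human MCF7 cells, normalised to DMSO vehicle-treated cells as 100%, with IC50 derived from fitted concentration–response curves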
Experimental: Cell metabolic activity of HFF-1 and MCF7 cells was assessed by MTT (3-(4,5-Dimethylthiazol-2-yl)-2,5-Diphenyltetrazolium Bromide) test (Sigma Aldrich, Milan, Italy). […] After the established exposure times, cells were incubated with MTT (0.5 mg/mL) and the optical density was measured as reported elsewhere [63]. Results were expressed as the percentage of cells in the presence of vehicle (DMSO) set as 100% and each experiment was performed in triplicate (n = 3). Concentration–response curves and IC50 were fitted and calculated with GraphPad Prism 5.0 (GraphPad Software, San Diego, CA, USA).

Cc1ccc(S(=O)(=O)Oc2ccc(/C=C/c3ccccc3)cc2)cc1[N+](=O)[O-] [1c, 4-[(E)-2-Phenylvinyl]phenyl 4-methyl-3-nitrobenzenesulfonate]
LDH release, dose dependence (in words) (MCF7 cells [1]; MCF7, 0–250 µM): raises only at the highest concentration administered (250 µM) | LDH released, fold vs vehicle (DMSO) set as 1 (MCF7 cells [1]; MCF7, 50 µM): three folds more | LDH released, fold vs vehicle (DMSO) set as 1 (MCF7 cells [1]; MCF7, 250 µM): almost five folds more | Cell number by H&E staining (in words) (MCF7 cells [2]): cell number is dramatically decreased | inhibition at 1 µM (human aromatase): 91% | Potency in inhibiting aromatase relative to RSV (human aromatase; compared to RSV): twentyfold more potent than RSV | IC50 (human aromatase; tested at concentrations from 0.01 to 100 μM, mean of triplicate determinations): 3.17 µM | HFF-1 viability (in words) ([3]; 0–250 µM, 24 and 72 h): significant reduction in viability only at the maximum concentration and after 72 h of treatment | Selectivity index (SI) over normal fibroblasts ([3]; HFF-1 vs MCF7, after 24 h): 1.82 | IC50 ([4]; Homo sapiens, MCF7, 24 h, 24 h, read-out: MCF7 Cells IC50 24 h): 29.2 µM | IC50 ([4]; Homo sapiens, MCF7, 72 h, 72 h, read-out: MCF7 Cells IC50 72 h): 40 µM | Viability (% of control) - 24 h ([4]; MCF7, 10 µM, 24 h): 85.23 ± 1.29 % of control | Viability (% of control) - 72 h ([4]; MCF7, 10 µM, 72 h): 96.62 ± 6.99 % of control | Viability (% of control) - 24 h ([4]; MCF7, 25 µM, 24 h): 73.08 ± 2.67 % of control | Viability (% of control) - 72 h ([4]; MCF7, 25 µM, 72 h): 91.88 ± 5.31 % of control | Viability (% of control) - 24 h ([4]; MCF7, 50 µM, 24 h): 37.39 ± 0.66 % of control | Metabolically active cells ([4]; MCF7, 50 µM, 24 h, DMSO alone = 100%): around 60% | Viability (% of control) - 72 h ([4]; MCF7, 50 µM, 72 h): 46.19 ± 1.67 % of control | Viability (% of control) - 24 h ([4]; MCF7, 100 µM, 24 h): 36.17 ± 1.56 % of control | Viability (% of control) - 72 h ([4]; MCF7, 100 µM, 72 h): 35.22 ± 2.21 % of control | Viability (% of control) - 24 h ([4]; MCF7, 250 µM, 24 h): 38.64 ± 1.23 % of control | Viability (% of control) - 72 h ([4]; MCF7, 250 µM, 72 h): 38.30 ± 4.07 % of control | Viability (% of control) - 24 h ([4]; MCF7, 500 µM, 24 h): 34.30 ± 1.43 % of control | Viability (% of control) - 72 h ([4]; MCF7, 500 µM, 72 h): 15.08 ± 0.67 % of control | IC50 ([4]; 24 h, read-out: MCF7 Cells IC50 24 h): 29.2 ± 1.9 µM | IC50 ([4]; 72 h, read-out: MCF7 Cells IC50 72 h): 39.9 ± 2.1 µM
